Type in all cases: physicochemical
Data set [1] is described as follows: Solubility of IR coloring material in toluene at 25° C. How it is done:
Specifics are as follows.
First, a tetrahydrofuran (THF) solution prepared by adding the IR coloring material to TI-IF is measured by a spectrophotometer and a calibration curve is constructed. Next, a liquid is prepared by adding the IR coloring material to toluene to the level that there is a part of the coloring material left undissolved. The resulting liquid is subjected to ultrasonication for 10 minutes while being maintained at 25° C., and allowed to stand overnight at 25° C. The THF solution obtained after the standing is filtered using a 0.2 μm filter. The filtrate is diluted so that it falls within the linear range of the calibration curve, the absorbance is measured, and quantification is made using the calibration curve.
The solubility shown in Table 1 was measured according to the method described below. Specifics are as follows.
First, the THF solution prepared by adding the IR coloring material to tetrahydrofuran (THF) was measured by a spectrophotometer, and the calibration curve was established. Next, a liquid was prepared by adding the IR coloring material to toluene to the level that there is a part of coloring material left undissolved. The resulting liquid was subjected to ultrasonication for 10 minutes while being kept at 25° C., and allowed to stand overnight at 25° C. The THF solution obtained after the standing was filtered using a 0.2 μm filter. The filtrate was diluted so that it falls within the linear range of the calibration curve, and the absorbance was measured. Based on the measured value, the solubility was quantified using the calibration curve.

A short description of data set [2]: Bar code pattern reading (PCS) of printed article before and after xenon light irradiation (light resistance). As to conditions: xenon light of 70,000 lux, 200 hours. How it is done: By mixing the components of the composition shown below, the infrared absorbing printing ink (1) was prepared.
By using each of the infrared absorbing printing ink obtained above, a bar code pattern was formed on a regular paper (trade name: MP-120, manufactured by PLUS Corporation), i.e., a base paper, by Gravure printing.
Subsequently, on the formed bar code pattern, another bar code pattern was additionally formed by using the infrared absorbing ink (2) having the composition shown below.
Next, on top of the bar code patterns formed by disposing two layers, three kinds of process inks having infrared transmittance (FDOL Yellow, FDOL Magenta, and FDOL Cyan, manufactured by TOYO INK MFG. CO., LTD. (trade names, manufactured by TOYO INK MFG. CO., LTD.) were further applied by Gravure printing to form a colored layer made of three visible colors (cyan, magenta, and yellow). As a result, a printed article having a bar code pattern disposed inside the matter was produced.
Two kinds of semiconductor laser beam having wavelengths of 830 nm and 905 nm respectively were irradiated onto the thus obtained printed article, and the detection was made by using a filter which cuts off the emission light having wavelength of 950 nm or less. As a result, it was possible to detect the pattern formed by the infrared absorbing ink.
Subsequently, xenon light of 70,000 lux was irradiated continuously for 200 hours onto the printed article by using a xenon lamp. After that, the reading state of the bar code pattern after the irradiation was evaluated. For the evaluation, PCS (print•contrast•signal) of 0.6 or more was evaluated as “good,” and PCS (print•contrast•signal) of less than 0.6 was evaluated as “bad.” The evaluation results are shown in Table 2 below.
The printed article was prepared in the same manner as Example 1 except that the solvent (a mixture solvent of toluene and methyl isobutyl ketone) in the composition of the infrared absorbing ink (1) and (2) is replaced with n-octane (SP value: 7.6), butyl acetate (SP value: 8.5), or isopropyl alcohol (IPA; SP values: 11.5), and evaluated.
The comparative printed article was prepared in the same manner as Example 1 except that the solvent (a mixture solvent of toluene and methyl isobutyl ketone) in the composition of the infrared absorbing ink (1) and (2) is replaced with n-pentane (SP value: 7.0; Example 2) or ethanol (SP value: 12.7; Example 3), and evaluated.

A short description of data set [3]: Ultraviolet curable ink of Example 4: reflected light of mark for copy protection, before and after xenon irradiation. As to conditions: xenon light of 70,000 lux, 72 hours; variation compared to the value before irradiation. As for the experimental part:
By mixing the components of the composition shown below, an ultraviolet curable ink having an infrared absorbing property was prepared.
By using the ultraviolet curable ink thus obtained, a mark for copy protection was printed on the same base paper as that used in Example 1 by Gravure printing. On top of the printed mark for copy protection, each of the three kinds of a process ink (FDOL Yellow, FDOL Magenta, and FDOL Cyan, trade names, manufactured by TOYO INK MFG. CO., LTD.) was applied as a layer by Gravure printing, or a mixture ink in which the three kinds of a process ink are mixed was applied as a layer by Gravure printing to hide the mark for copy protection, thus obtaining a printed article.
The mark for copy protection that is hidden by the process ink was irradiated with infrared light using a linear sensor (trade name: TCD1500C, manufactured by Toshiba) in which the infrared cut-off filter of linear sensor was replaced with an infrared transmitting filter (trade name: IR83, manufactured by Hoya) as a detection device, and the reflected light was detected simultaneously.
The reflection light intensity in the area of the mark for copy protection at the time of detecting the mark was divided by the reflection light intensity of the area outside the mark for copy protection. The resulting value of the comparative infrared absorbing agent A was set to 1, and a ratio of the resulting value with respect to the resulting value of the comparative infrared absorbing agent A was calculated for each compound.
In addition, the obtained printed article was irradiated continuously with xenon light of 70,000 lux for 72 hours by using a Xenon lamp. After the irradiation, similar to above, the reflection light intensity of the area of the mark for copy protection was divided by the reflection light intensity of the area outside the mark for copy protection, and the variation ratio [%] compared to the value before the irradiation was calculated to use it as an index for evaluation of light resistance.

Where [4] appears, read: Example 2, ink solvent n-pentane (SP value: 7.0).
Setting [5] is: Example 3, ink solvent ethanol (SP value: 12.7).
Setting [6] is: ink solvent IPA (SP value: 11.5).
Where [7] appears, read: ink solvent butyl acetate (SP value: 8.5).
The mark [8] stands for this setting: ink solvent n-octane (SP value: 7.6).
[9] abbreviates: ink solvent toluene/methyl isobutyl ketone = 70/30.

Where two headings read alike, the source gives them in different places.

For the compound `CCOc1c2c(c(OCC)c3ccccc13)-c1nc-2nc2[n-]c(nc3nc(nc4[n-]c(n1)c1c(OCC)c5ccccc5c(OCC)c41)-c1c-3c(OCC)c3ccccc3c1OCC)c1c(OCC)c3ccccc3c(OCC)c21.[Cu+2]` [Compound 23], the “Solubility [mg/ml] Solvent: toluene” value in data set [1] (toluene, 25° C.) turned out to be 1.75 mg/mL. In addition, the Reading after irradiation result in data set [2] (setting [4]) is recorded as “Bad (PCS (print•contrast•signal) of less than 0.6 was evaluated as “bad.”)”; in data set [2] (setting [5]) it was “Bad (PCS (print•contrast•signal) of less than 0.6 was evaluated as “bad.”)”; in data set [2] (setting [6]), “Good (PCS (print•contrast•signal) of 0.6 or more was evaluated as “good,”)”; in data set [2] (setting [7]), “Good (PCS (print•contrast•signal) of 0.6 or more was evaluated as “good,”)”; in data set [2] (setting [8]), “Good (PCS (print•contrast•signal) of 0.6 or more was evaluated as “good,”)”; in data set [2] (setting [9]), “Good (PCS (print•contrast•signal) of 0.6 or more was evaluated as “good,”)”. Further, in data set [3], the “Variation amount after irradiation [%]” value is given as 4%.

Regarding `CCCCCCCCOc1c2c(c(OCCCCCCCC)c3ccccc13)C1=Nc3c4c(OCCCCCCCC)c5ccccc5c(OCCCCCCCC)c4c4[n]3[Cu][n]3c(c5c(OCCCCCCCC)c6ccccc6c(OCCCCCCCC)c5c3=NC3=NC(=N4)c4c3c(OCCCCCCCC)c3ccccc3c4OCCCCCCCC)=NC2=N1` [Compound 25], in data set [1] (toluene, 25° C.), the “Solubility [mg/ml] Solvent: toluene” value was determined as 27 mg/mL. Besides, the Reading after irradiation entry in data set [2] (setting [4]) is recorded as “Bad (PCS (print•contrast•signal) of less than 0.6 was evaluated as “bad.”)”; in data set [2] (setting [5]), “Bad (PCS (print•contrast•signal) of less than 0.6 was evaluated as “bad.”)”; in data set [2] (setting [6]), “Good (PCS (print•contrast•signal) of 0.6 or more was evaluated as “good,”)”; in data set [2] (setting [7]) it was “Good (PCS (print•contrast•signal) of 0.6 or more was evaluated as “good,”)”; in data set [2] (setting [8]), “Good (PCS (print•contrast•signal) of 0.6 or more was evaluated as “good,”)”; in data set [2] (setting [9]) it was “Good (PCS (print•contrast•signal) of 0.6 or more was evaluated as “good,”)”. In data set [3], the “Variation amount after irradiation [%]” value turned out to be 2%.

`CCCCOc1c2c(c(OCCCC)c3ccccc13)C1=Nc3c4c(OCCCC)c5ccccc5c(OCCCC)c4c4[n]3[Cu][n]3c(c5c(OCCCC)c6ccccc6c(OCCCC)c5c3=NC3=NC(=N4)c4c3c(OCCCC)c3ccccc3c4OCCCC)=NC2=N1` [Compound 24]: the “Solubility [mg/ml] Solvent: toluene” value in data set [1] (toluene, 25° C.) was determined as 16 mg/mL. In addition, the Reading after irradiation result in data set [2] (setting [4]) is recorded as “Bad (PCS (print•contrast•signal) of less than 0.6 was evaluated as “bad.”)”; in data set [2] (setting [5]), “Bad (PCS (print•contrast•signal) of less than 0.6 was evaluated as “bad.”)”; in data set [2] (setting [6]) it was “Good (PCS (print•contrast•signal) of 0.6 or more was evaluated as “good,”)”; in data set [2] (setting [7]) it was “Good (PCS (print•contrast•signal) of 0.6 or more was evaluated as “good,”)”; in data set [2] (setting [8]) it was “Good (PCS (print•contrast•signal) of 0.6 or more was evaluated as “good,”)”; in data set [2] (setting [9]) it was “Good (PCS (print•contrast•signal) of 0.6 or more was evaluated as “good,”)”. The “Variation amount after irradiation [%]” value in data set [3] amounted to 3%.

Take “N,N,N′,N′-tetrakis(p-di-n-butylaminophenyl)-p-phenylene diaminium perchlorate salt [reference compound]”: the “Solubility [mg/ml] Solvent: toluene” value in data set [1] (toluene, 25° C.) amounted to 32 mg/mL. In data set [2] (setting [9]), the Reading after irradiation entry was “Bad (PCS (print•contrast•signal) of less than 0.6 was evaluated as “bad.”)”. For the same compound, the “Variation amount after irradiation [%]” value in data set [3] is 16%.

Take `CCCCCCCCOc1c2c(c(OCCCCCCCC)c3ccccc13)C1=Nc3c4c(OCCCCCCCC)c5ccccc5c(OCCCCCCCC)c4c4[n]3[Zn][n]3c(c5c(OCCCCCCCC)c6ccccc6c(OCCCCCCCC)c5c3=NC3=NC(=N4)c4c3c(OCCCCCCCC)c3ccccc3c4OCCCCCCCC)=NC2=N1` [Compound 27]: the “Solubility [mg/ml] Solvent: toluene” value in data set [1] is 25 mg/mL. In addition, the Reading after irradiation entry is “Bad (PCS (print•contrast•signal) of less than 0.6 was evaluated as “bad.”)” in data set [2] (setting [4]); “Bad (PCS (print•contrast•signal) of less than 0.6 was evaluated as “bad.”)” in data set [2] (setting [5]); “Good (PCS (print•contrast•signal) of 0.6 or more was evaluated as “good,”)” in data set [2] (setting [6]); “Good (PCS (print•contrast•signal) of 0.6 or more was evaluated as “good,”)” in data set [2] (setting [7]); “Good (PCS (print•contrast•signal) of 0.6 or more was evaluated as “good,”)” in data set [2] (setting [8]); “Good (PCS (print•contrast•signal) of 0.6 or more was evaluated as “good,”)” in data set [2] (setting [9]). In data set [3], the “Variation amount after irradiation [%]” value was determined as 4%.

With `CCCCCCCCN1/C(=C/C=C/C=C/C=C/C2=[N+](CCCCCCCC)c3ccc4ccccc4c3C2(C)C)C(C)(C)c2c1ccc1ccccc21.Cc1ccc(S(=O)(=O)[O-])cc1` [reference compound], the “Solubility [mg/ml] Solvent: toluene” value in data set [1] (toluene, 25° C.) turned out to be 43 mg/mL. The Reading after irradiation entry in data set [2] (setting [9]) is recorded as “Bad (PCS (print•contrast•signal) of less than 0.6 was evaluated as “bad.”)”. The “Variation amount after irradiation [%]” value in data set [3] is listed as 21%.

Take `Nc1ccccc1Sc1c2c(c(Sc3ccccc3N)c3c1C1=Nc4c5c(Sc6ccccc6N)c6c(c(Sc7ccccc7N)c5c5[n]4[Cu][n]4c(c7c(Sc8ccccc8N)c8c(c(Sc9ccccc9N)c7c4=NC4=NC(=N5)c5c(Sc7ccccc7N)c7c(c(Sc9ccccc9N)c54)NC4C=CC=CC4S7)SC4C=CC=CC4N8)=NC3=N1)NC1C=CC=CC1S6)SC1C=CC=CC1N2` (stereo not shown) [Compound 69]: the “Solubility [mg/ml] Solvent: toluene” value in data set [1] (toluene, 25° C.) stood at 12 mg/mL. Moreover, the Reading after irradiation result is “Bad (PCS (print•contrast•signal) of less than 0.6 was evaluated as “bad.”)” in data set [2] (setting [4]); “Bad (PCS (print•contrast•signal) of less than 0.6 was evaluated as “bad.”)” in data set [2] (setting [5]); “Good (PCS (print•contrast•signal) of 0.6 or more was evaluated as “good,”)” in data set [2] (setting [6]); “Good (PCS (print•contrast•signal) of 0.6 or more was evaluated as “good,”)” in data set [2] (setting [7]); “Good (PCS (print•contrast•signal) of 0.6 or more was evaluated as “good,”)” in data set [2] (setting [8]); “Good (PCS (print•contrast•signal) of 0.6 or more was evaluated as “good,”)” in data set [2] (setting [9]). In data set [3], the “Variation amount after irradiation [%]” value is on record as 4%.
